Test results as given in patent publication US6727245B2, “Heterobicyclic derivatives” (Fujisawa Pharmaceutical Co., Ltd., priority 1994, dated 2004).

`Nc1cccc(-n2c(=O)c(Cc3cccnc3)nc3cccnc32)c1` [Example 46, 4-(3-aminophenyl)-2-(3-pyridylmethyl)-3-oxo-3,4-dihydropyrido[2,3-b]pyrazine] showed a melting point of 168 to 170 °C. With `CC(=O)c1cn(-c2cccc(-n3c(=O)c(Cc4ccccc4)nc4cccnc43)c2)c2ccccc12` [Example 45(11), 2-Benzyl-4-[3-(3-acetylindol-1-yl)phenyl]-3-oxo-3,4-dihydropyrido[2,3-b]pyrazine] the melting point was 157 to 159 °C. `COc1ccc(-c2cccc(-n3c(=O)c(Cc4cccnc4)nc4cccnc43)c2)cc1OC1CCCC1` [Example 54(27), 4-[3-(3-Cyclopentyloxy-4-methoxyphenyl)phenyl]-2-(3-pyridylmethyl)-3-oxo-3,4-dihydropyrido[2,3-b]pyrazine] showed a melting point of 109 to 111 °C. In the case of `O=C(Nc1ccccc1)Nc1cccc(-n2c(=O)c(Cc3ccccc3)nc3ccc(Sc4ccccc4)nc32)c1` [Example 68(14), 2-Benzyl-6-phenylthio-4-[3-(3-phenylureido)phenyl]-3-oxo-3,4-dihydropyrido[2,3-b]pyrazine], the melting point is reported as 183 to 185 °C. With `O=C(Nc1cccc(-c2cccc(-n3c(=O)c(Cc4cccnc4)nc4cccnc43)c2)c1)c1cc2ccccc2s1` [Example 76(3), 4-[3-[3-[(Benzo[b]thiophen-2-yl)carbonylamino]phenyl]phenyl]-2-(3-pyridylmethyl)-3-oxo-3,4-dihydropyrido[2,3-b]pyrazine] the melting point was 216 to 218 °C. Compound `O=c1c(Cc2cccnc2)nc2cccnc2n1-c1cccc(C(F)(F)F)c1` [Example 45(14), 4-(3-Trifluoromethylphenyl)-2-(3-pyridylmethyl)-3-oxo-3,4-dihydropyrido[2,3-b]pyrazine] has a melting point of 88 to 90 °C. In the case of `O=C(/C=C(\C(=O)O)c1ccccc1)Nc1cccc(-c2cccc(-n3c(=O)c(Cc4cccnc4)nc4cccnc43)c2)c1` [Example 82(2), 4-[3-[3-[(Z)-3-Carboxy-3-phenylacryloylamino]phenyl]phenyl]-2-(3-pyridylmethyl)-3-oxo-3,4-dihydropyrido[2,3-b]pyrazine], the melting point is reported as 189 to 198 °C (dec.). For `COc1ccccc1NC(=O)Nc1cccc(-n2c(=O)c(CCC(=O)N(C)C)nc3cccnc32)c1` [Example 24, 2-[2-(N,N-dimethylcarbamoyl)ethyl]-3-oxo-4-[3-[3-(2-methoxyphenyl)-ureido]phenyl]-3,4-dihydropyrido[2,3-b]pyrazine], the melting point was 242 to 245 °C. With `CNC(=O)Nc1cccc(-c2cccc(-n3c(=O)c(Cc4cccnc4)nc4cccnc43)c2)c1` [Example 72, 4-[3-[3-(3-Methylureido)phenyl]phenyl]-2-(3-pyridylmethyl)-3-oxo-3,4-dihydropyrido[2,3-b]pyrazine] the melting point was 248 to 252 °C. In the case of `CCCOC(=O)CCc1nc2cccnc2n(-c2cccc(NC(=O)Nc3ccccc3OC)c2)c1=O` [Example 34(1), 4-[3-[3-(2-Methoxyphenyl)ureido]phenyl]-3-oxo-2-(2-propyloxycarbonylethyl)-3,4-dihydropyrido[2,3-b]-pyrazine], the melting point is reported as 161 to 163 °C. In the case of `COC(=O)c1cccc(-c2cccc(-n3c(=O)c(Cc4cccnc4)nc4cccnc43)c2)c1` [Example 54(28), 4-[3-(3-Methoxycarbonylphenyl)phenyl]-2-(3-pyridylmethyl)-3-oxo-3,4-dihydropyrido[2,3-b]pyrazine], the melting point is reported as 179 to 181 °C. In the case of `O=C(Nc1ccccc1)Nc1cccc(-c2cccc(-n3c(=O)c(Cc4cccnc4)nc4cccnc43)c2)c1` [Example 74, 4-[3-[3-(3-Phenylureido)phenyl]phenyl]-2-(3-pyridylmethyl)-3-oxo-3,4-dihydropyrido[2,3-b]pyrazine], the melting point is reported as 234 °C. `O=c1c(Cc2cccnc2)nc2cccnc2n1-c1cccc(-n2cccc2)c1` [Example 45(13), 4-[3-(1-Pyrrolyl)phenyl]-2-(3-pyridylmethyl)-3-oxo-3,4-dihydropyrido[2,3-b]pyrazine] gave a melting point of 128 to 130 °C. In the case of `O=c1c(Cc2ccccc2)nc2cccnc2n1-c1cccc(NS(=O)(=O)c2ccccc2)c1` [Example 68(13), 2-Benzyl-4-(3-phenylsulfonylaminophenyl)-3-oxo-3,4-dihydropyrido[2,3-b]pyrazine], the melting point is reported as 199 to 211 °C. `COC(=O)CCc1nc2cccnc2n(-c2cccc(NC(=O)Nc3ccccc3OC)c2)c1=O` [Example 34(2), 2-(2-Methoxycarbonylethyl)-3-oxo-4-[3-[3-(2-methoxyphenyl)ureido]phenyl]-3,4-dihydropyrido-[2,3-b]pyrazine] showed a melting point of 194 to 196 °C. `O=c1c(Cc2cccnc2)nc2cccnc2n1-c1cccc(-c2ccc3ccccc3c2)c1` [Example 43, 4-[3-(2-naphthyl)phenyl]-2-(3-pyridylmethyl)-3-oxo-3,4-dihydropyrido[2,3-b]pyrazine] showed a melting point of 155 to 156 °C. In the case of `O=c1c(Cc2ccccc2)nc2cccnc2n1-c1cccc(-c2nc3ccccc3s2)c1` [Example 45(8), 2-Benzyl-4-[3-(benzothiazol-2-yl)phenyl]-3-oxo-3,4-dihydropyrido[2,3-b]pyrazine], the melting point is reported as 197 to 198 °C. For `O=c1c(Cc2ccc(O)cc2)nc2cccnc2n1-c1cccc(-n2cccc2)c1` [Example 68(16), 2-(4-Hydroxybenzyl)-4-[3-(pyrrol-1-yl)phenyl]-3-oxo-3,4-dihydropyrido[2,3-b]pyrazine], the melting point was 263 °C. `COC(=O)/C=C/c1cccc(-n2c(=O)c(Cc3cccnc3)nc3cccnc32)c1` [Example 54(29), 4-[3-[ (E)-2-Methoxycarbonylvinyl]phenyl]-2-(3-pyridylmethyl)-3-oxo-3,4-dihydropyrido[2,3-b]pyrazine] showed a melting point of 180 to 181 °C. In the case of `COc1ccccc1NC(=O)Nc1cccc(-n2c(=O)c(CCC(=O)O)nc3cccnc32)c1` [Example 16(12), 2-(2-Carboxyethyl)-3-oxo-4-[3-[3-(2-methoxyphenyl)-ureido]phenyl]-3,4-dihydropyrido[2,3-b]pyrazine], the melting point is reported as 143 to 153 °C (dec.). For `COc1ccc2cc(-c3cccc(-n4c(=O)c(Cc5cccnc5)nc5cccnc54)c3)ccc2c1` [Example 54(24), 4-[3-(6-Methoxy-2-naphthyl)phenyl]-2-(3-pyridylmethyl)-3-oxo-3,4-dihydropyrido[2,3-b]pyrazine], the melting point was 228 to 231 °C. Work on `O=C(/C=C/c1ccncc1)Nc1cccc(-c2cccc(-n3c(=O)c(Cc4cccnc4)nc4cccnc43)c2)c1` [Example 76(6), 4-[3-[3-[(E)-3-(4-Pyridyl)acryloylamino]phenyl]phenyl]-2-(3-pyridylmethyl)-3-oxo-3,4-dihydropyrido[2,3-b]pyrazine] yielded a melting point of 185 to 191 °C. Work on `Nc1cccc(-c2cccc(-n3c(=O)c(Cc4cccnc4)nc4cccnc43)c2)c1` [Example 75, 4-[3-(3-Aminophenyl)phenyl]-2-(3-pyridylmethyl)-3-oxo-3,4-dihydropyrido[2,3-b]pyrazine] yielded a melting point of 202 to 204 °C. `O=C(O)CCC(=O)Nc1cccc(-c2cccc(-n3c(=O)c(Cc4cccnc4)nc4cccnc43)c2)c1` [Example 82(1), 4-[3-[3-(3-Carboxypropanoylamino)phenyl]phenyl]-2-(3-pyridylmethyl)-3-oxo-3,4-dihydropyrido[2,3-b]pyrazine] gave a melting point of 193 to 199 °C. For `CC(=O)Nc1cccc(-n2c(=O)c(CCC(=O)O)nc3cccnc32)c1` [Example 16(15), 4-(3-Acetamidophenyl)-2-(2-carboxyethyl)-3-oxo-3,4-dihydropyrido[2,3-b]pyrazine], the melting point was 264 to 269 °C (dec.).
